Test results as given in the supplement of paper PMC7840683.
Where a name gives a salt, the structure may show the parent alone. ± gives the standard deviation of the averaged measurements.

System: HepaRG
Assay: LDH release cytotoxicity, % of total lysis control; higher = more cytotoxic
Settings: 48 h
Summary of the method: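 Duplicate wells of single-lot HepaRG cells, grown on collagen I-coated 96-well plates, received eight-point half-log series of test chemicals with 100 µM as the top concentration. Exposure lasted 48 h in serum-free induction medium with 0.5% DMSO, while total lysis wells received 0.1% Triton X. Resorufin fluorescence (CytoTox-ONE, Tecan Safire) was used to quantify LDH leaked into 50 µL of spent medium. Values for percent cytotoxicity were normalized to on-plate vehicle and total lysis controls and averaged across the duplicates.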

| Compound | LDH release cytotoxicity (0.03162 µM) | LDH release cytotoxicity (0.1 µM) | LDH release cytotoxicity (0.3162278 µM) | LDH release cytotoxicity (1 µM) | LDH release cytotoxicity (3.16228 µM) | LDH release cytotoxicity (10 µM) | LDH release cytotoxicity (31.6228 µM) | LDH release cytotoxicity (100 µM) | also measured |
| --- | --- | --- | --- | --- | --- | --- | --- | --- | --- |
| OCC(CO)n1cnc(-c2ccc(F)cc2)c1-c1ccnc(Oc2ccccc2)n1 | – | – | – | – | – | – | – | – | LDH release cytotoxicity (0.029093 µM): -1.79 ± 1.4%; LDH release cytotoxicity (0.092 µM): -1.44 ± 0.51%; LDH release cytotoxicity (0.29093 µM): -0.719 ± 2.1%; LDH release cytotoxicity (0.92 µM): -1.96 ± 0.076%; LDH release cytotoxicity (2.9092954 µM): -2.48 ± 0.61%; LDH release cytotoxicity (9.2 µM): -2.62 ± 0.29%; LDH release cytotoxicity (29.093 µM): 0.252 ± 0.39%; LDH release cytotoxicity (92 µM): 51.2 ± 11% |
| CCOc1cccc(C2(N3CCN(c4ccccc4)CC3)CCC(C)CC2)c1 (configuration not stated) | -1.75 ± 0.02% | -2.4 ± 0.55% | -2.68 ± 0.082% | -2.73 ± 0.63% | -2.22 ± 0.23% | -2.03 ± 0.69% | -1.97 ± 0.4% | -1.12 ± 0.82% | – |
| O=C(N[C@H]1CN2CCC1CC2)c1cc2ccoc2cn1 [(R)-N-(Quinuclidin-3-yl)furo(2,3-C)pyridine-5-carboxamide] | -0.025 ± 0.11% | 1.01 ± 0.6% | 0.216 ± 0.84% | 0.437 ± 0.39% | 1.24 ± 0.3% | 0.814 ± 0.5% | 1.28 ± 0.19% | 1.77 ± 0.61% | – |
| COc1cc(-c2ccc(N)c(OC)c2)ccc1N [3,3'-Dimethoxybenzidine dihydrochloride] | -1.44 ± 0.28% | -1.17 ± 0.44% | -1.43 ± 0.26% | -2.08 ± 0.059% | -1.15 ± 0.23% | -0.317 ± 0.23% | 0.438 ± 1% | 3.4 ± 0.6% | – |
| CCCCCCCCCCO [1-Decanol] | -1.47 ± 0.66% | -2.45 ± 1% | -1.67 ± 0.81% | -2.76 ± 0.3% | -1.79 ± 1% | -1.21 ± 0.22% | -0.773 ± 0.89% | 0.757 ± 0.16% | – |
| c1ccc(N=Nc2ccccc2)cc1 [Azobenzene] | -1.57 ± 0.37% | -1.67 ± 0.46% | -0.316 ± 1.5% | -2 ± 0.14% | -1.63 ± 0.18% | 0.0427 ± 0.32% | 1.14 ± 0.012% | 3.66 ± 1.6% | – |
| CC(=O)OCCOCCOCCOC(C)=O [Triethylene glycol diacetate] | -2% | -1.98 ± 0.077% | -1.83 ± 0.78% | -1.55 ± 0.41% | 0.0849 ± 2% | -1.35 ± 0.28% | -0.553 ± 0.033% | 1.55 ± 0.07% | – |
| Cc1ccccc1[N+](=O)[O-] [2-Nitrotoluene] | – | – | – | – | – | – | – | – | LDH release cytotoxicity (0.0324133 µM): -0.207 ± 0.0063%; LDH release cytotoxicity (0.1025 µM): -0.999 ± 0.6%; LDH release cytotoxicity (0.324134 µM): -0.895 ± 0.32%; LDH release cytotoxicity (1.025 µM): -1.29 ± 0.7%; LDH release cytotoxicity (3.24133 µM): -0.412 ± 0.16%; LDH release cytotoxicity (10.25 µM): 0.00334 ± 0.67%; LDH release cytotoxicity (32.4133 µM): 0.414 ± 0.41%; LDH release cytotoxicity (102.5 µM): 1.14 ± 0.065% |
| O=C(O)C(Cl)(Cl)Cl [Sodium trichloroacetate] | -0.75 ± 0.63% | -0.518 ± 0.088% | -1.06 ± 0.36% | -0.987 ± 0.68% | -1.23 ± 1.3% | -0.588 ± 0.51% | 0.00119 ± 0.52% | 0.935 ± 0.7% | – |
| CCCN(CCC)c1c([N+](=O)[O-])cc(S(N)(=O)=O)cc1[N+](=O)[O-] [Oryzalin] | -2.37 ± 0.48% | -2.04 ± 0.77% | -0.725 ± 1.5% | -1.89 ± 1.1% | -2.11 ± 0.66% | -2.88 ± 0.44% | -1.72 ± 0.24% | 77.1 ± 9.5% | – |
| COc1cc(C=O)cc2c1C(COC(N)=O)C1(OC(C)=O)ON2CC2C1N2C(C)=O (configuration not stated) | -0.71 ± 0.46% | -0.654 ± 0.1% | 1.14 ± 1.2% | 17.5 ± 1.6% | 62.9 ± 2.6% | 67.8 ± 2.4% | 73 ± 2.2% | 73.3 ± 2.3% | – |
| ClC1=C(Cl)C(Cl)(Cl)C(Cl)=C1Cl [Hexachlorocyclopentadiene] | – | -0.0238 ± 0.36% | – | -1.14 ± 0.92% | -0.83 ± 0.046% | -0.988 ± 0.15% | -0.0453 ± 0.82% | 0.368 ± 1.3% | LDH release cytotoxicity (0.031623 µM): -1.11 ± 2.6%; LDH release cytotoxicity (0.316228 µM): -1.49 ± 0.55% |
| CCC1CCC(NCc2cc3c(cc2OC)C2CC2C(=O)N3C)C(c2ccccc2)N1 (configuration not stated) | -1.16 ± 0.78% | -1.78 ± 0.18% | -0.445 ± 0.68% | -1.5 ± 1.7% | -0.96 ± 1.1% | -0.794 ± 0.26% | 0.439 ± 0.24% | 7.84 ± 0.41% | – |
| CCc1nn(C)c(C(=O)NCc2ccc(C(C)(C)C)cc2)c1Cl [Tebufenpyrad] | -1.57 ± 0.17% | -1.25 ± 0.71% | -2.38 ± 0.55% | 5.74 ± 2.5% | 10.5 ± 1.9% | 15.5 ± 3.4% | 23.2 ± 2.7% | 49.6 ± 7.2% | – |
| CCCCOC(=O)CC(CC(=O)OCCCC)(OC(C)=O)C(=O)OCCCC [Acetyl tributyl citrate] | -1.13 ± 2% | -1.34 ± 0.08% | -1.35 ± 0.17% | -1.86 ± 1.8% | -1.7 ± 0.77% | -0.33 ± 1.3% | -0.458 ± 0.058% | 0.439 ± 0.83% | – |
| CC(C)(C)c1cccc(C(C)(C)C)c1O [2,6-Di-tert-butylphenol] | -1.46 ± 0.98% | -2.07 ± 0.79% | -1.81 ± 0.93% | -2.85 ± 0.3% | -2.37 ± 0.99% | -2.01 ± 0.62% | -2.37 ± 1.6% | -2.35 ± 1.9% | – |
| CCC(C)N1C(=O)N=C(C)C(Br)C1=O (configuration not stated) [Bromacil] | – | -3.85 ± 1.5% | – | -3.54 ± 0.72% | -3.65 ± 0.22% | -2.46 ± 0.054% | 0.888 ± 0.45% | 5.41 ± 1.2% | LDH release cytotoxicity (0.031623 µM): -0.635 ± 0.33%; LDH release cytotoxicity (0.316228 µM): -3.85 ± 0.21% |
| CCCCOC(=O)c1ccccc1C(=O)OCCCC [Dibutyl phthalate] | 6.54 ± 1.9% | 3.46 ± 1.6% | 3.28 ± 0.066% | 4.3 ± 0.12% | 4.61 ± 0.89% | 4.63 ± 1% | 6.08 ± 2% | 9.42 ± 0.15% | – |
| C[C@](N)(Cc1ccc(O)c(O)c1)C(=O)O [Methyldopa sesquihydrate] | -0.769 ± 0.75% | -1.62 ± 1.9% | -0.864 ± 0.56% | -1.87 ± 0.72% | -1.57 ± 0.67% | -0.513 ± 0.67% | -2.01 ± 0.42% | -2.91 ± 0.43% | – |
